Converted amounts (≈) assume the structure as drawn.
Tests used:
[1] = Inhibition of NLRP3 inflammasome activation mediated pyroptosis in LPS-stimulated human THP-1 cells preincubated for 3 hrs followed by nigericin addition and measured after 1 hrs by resazurin dye based assay; type: cell-based
[2] = Inhibition of NLRP3 inflammasome activation in LPS-stimulated human whole blood assessed as reduction in IL-1beta release preincubated for 3 hrs followed by nigericin addition and measured after 1 hrs by Alphalisa method; type: tissue-based
[3] = Binding affinity to NanoLuc-tagged NLRP3 (unknown origin) expressed in HEK293 cells incubated for 2 hrs by NanoBRET assay; type: cell-based; settings: Homo sapiens, HEK293, 2 h
[4] = species on record: Homo sapiens; test: Selectivity ratio of IC50 for inhibition of NLRP3 inflammasome activation in LPS-stimulated human whole blood assessed as reduction in IL-1beta release to IC50 for inhibition of NLRP3 inflammasome activation mediated pyroptosis in LPS-stimulated human THP-1 cells
[5] = Lipophilicity, logD of compound at pH 7.4; type: physicochemical; settings: buffer
[6] = Metabolic stability in pooled human liver microsomes assessed as intrinsic clearance at 1 uM measured upto 45 mins in presence of NADPH by UPLC-MS/MS analysis; type: ADME, Microsome; settings: read-out: CLH
[7] = Clearance in male Sprague-Dawley rat at 1 mg/kg, iv measured after 24 hrs by LC-MS analysis; type: ADME, organism-based; settings: in vivo
[8] = tested on: MDR1; test: Efflux ratio of permeability in MDCKII-MDR1 cells at 5 uM incubated for 2 hrs by LC-MS/MS analysis; type: ADME, cell-based, Canis lupus familiaris; settings: dog, MDCK-MDR1
[9] = tested on: MDR1; test: Efflux ratio of permeability across apical to basolateral side in pig LLC-PK1 cells transfected with MDR1; type: ADME, cell-based, Sus scrofa
[10] = tested on: BCRP; test: Permeability in MDCK-II-BCRP cells at 5 uM incubated for 2 hrs by LC-MS/MS analysis; type: ADME, cell-based, Canis lupus familiaris; settings: dog, read-out: permeability
[11] = tested on: MDR1; test: Permeability across apical to basolateral side in pig LLC-PK1 cells transfected with MDR1; type: ADME, cell-based, Sus scrofa; settings: read-out: permeability
[12] = Metabolic stability in human hepatocytes assessed as intrinsic clearance measured per 10^6 cells at 100 uM incubated upto 60 mins by UPLC-MS/MS analysis; type: ADME, cell-based, Hepatocyte; settings: read-out: CLH
[13] = tested on: MDR1; test: Permeability in MDCKII-MDR1 cells at 5 uM incubated for 2 hrs by LC-MS/MS analysis; type: ADME, cell-based, Canis lupus familiaris; settings: dog, MDCK-MDR1, read-out: permeability
[14] = Kinetic solubility of compound; type: physicochemical; settings: read-out: Kinetic_solubility
[15] = tested on: BCRP; test: Efflux ratio of permeability in MDCK-II-BCRP cells at 5 uM incubated for 2 hrs by LC-MS/MS analysis; type: ADME, cell-based, Canis lupus familiaris; settings: dog
[16] = AUC (0 to infinity) in male Sprague-Dawley rat at 1 mg/kg, iv measured after 24 hrs by LC-MS analysis; type: ADME, organism-based; settings: in vivo
[17] = Volume of distribution at steady state in male Sprague-Dawley rat at 1 mg/kg, iv measured after 24 hrs by LC-MS analysis; type: ADME, organism-based; settings: in vivo, read-out: Vdss
[18] = Protein binding in human plasma assessed as unbound fraction at 5 uM incubated for 4 hrs by UPLC-MS analysis; type: ADME, cell-free
[19] = Protein binding in mouse plasma assessed as unbound fraction at 5 uM incubated for 4 hrs by UPLC-MS analysis; type: ADME, cell-free
[20] = Metabolic stability in pooled rat liver microsomes assessed as intrinsic clearance at 1 uM measured upto 45 mins in presence of NADPH by UPLC-MS/MS analysis; type: ADME, Microsome; settings: read-out: CLH
[21] = Half-life in male Sprague-Dawley rat at 1 mg/kg, iv measured after 24 hrs by LC-MS analysis; type: ADME, organism-based; settings: in vivo
[22] = Metabolic stability in rat hepatocytes assessed as intrinsic clearance measured per 10^6 cells at 100 uM incubated upto 60 mins by UPLC-MS/MS analysis; type: ADME, cell-based, Hepatocyte; settings: read-out: CLH
[23] = Protein binding in rat plasma assessed as unbound fraction at 5 uM incubated for 4 hrs by UPLC-MS analysis; type: ADME, cell-free
[24] = Metabolic stability in pooled mouse liver microsomes assessed as intrinsic clearance at 1 uM measured upto 45 mins in presence of NADPH by UPLC-MS/MS analysis; type: ADME, Microsome; settings: read-out: CLH
[25] = Metabolic stability in mouse hepatocytes assessed as intrinsic clearance measured per 10^6 cells at 100 uM incubated upto 60 mins by UPLC-MS/MS analysis; type: ADME, cell-based, Hepatocyte; settings: read-out: CLH

| IC50 [2] [nM] | Compound | IC50 [1] [nM] | also measured |
| --- | --- | --- | --- |
| 204 | CC(C)c1cccc2c1CC(=O)NS(=O)(=O)c1cnn(c1)C1(CCC1)COc1cc-2ccn1 | 52 |  |
| 421 | CC(C)c1cccc2c1CC(=O)NS(=O)(=O)c1cnn(c1)C1(CC1)COc1cc-2ccn1 | 567 |  |
| 506 | CC(C)c1cccc2c1CC(=O)NS(=O)(=O)c1cnn(c1)C1(CCCC1)COc1cc-2ccn1 | 105 |  |
| 168 | CC1(C)COc2cc(ccn2)-c2ccc3c(c2NC(=O)NS(=O)(=O)c2nn1cc2F)CCC3 | 17 |  |
| 770 | CC(C)(O)c1coc(S(=O)(=O)NC(=O)Nc2c3c(cc4c2CCC4)CCC3)c1 | 64 | IC50 [3]: 990 nM |
| 119 | O=C1Nc2c(ccc3c2CCC3)-c2ccnc(c2)OCCn2ccc(n2)S(=O)(=O)N1 | 63 |  |
| 230 | COc1cc(-c2ccc3c(c2NC(=O)NS(=O)(=O)c2nn(C(C)C)cc2F)CCC3)ccn1 | 8 |  |
| 450 | CC(C)c1cc(F)cc2c1CC(=O)NS(=O)(=O)c1cn(nc1F)C(C)(C)COc1cc-2ccn1 | 20 |  |
| 441 | CC(C)c1cccc2c1CC(=O)NS(=O)(=O)c1cnn(c1)C(C)(C1CC1)COc1cc-2ccn1 (centres undefined) | 31 |  |
| 5940 | CC(C)n1ccc(S(=O)(=O)NC(=O)Nc2c(-c3ccnc(Oc4ccccc4)c3)ccc3c2CCC3)n1 | 59 | Ratio IC50 [4]: 16; logD [5]: 1.2 |
|  | CC(C)c1cccc2c1CC(=O)NS(=O)(=O)c1cnn(n1)C(C)(C)COc1cc-2ccn1 | 1680 |  |
| 1570 | O=C1Nc2c(ccc3c2CCC3)-c2ccnc(c2)OCCCCCCn2ccc(n2)S(=O)(=O)N1 | 215 |  |
| 125 | CC1(C)COc2cc(ccn2)-c2c(F)cc3c(c2NC(=O)NS(=O)(=O)c2nn1cc2F)CCC3 | 8 |  |
| 420 | CC(C)c1cccc2c1CC(=O)NS(=O)(=O)c1cnn(c1)C(C)(C)COc1cc-2ccn1 | 166 |  |
| 338 | COc1cc(-c2ccc3c(c2NC(=O)NS(=O)(=O)c2cnn(C(C)C)c2)CCC3)ccn1 | 16 | microsomal CLint at 1 µM [6]: 45 µL/min/mg |
| 102 | Cc1cc2c(c3c1-c1ccnc(c1)OCC(C)(C)n1cc(F)c(n1)S(=O)(=O)NC(=O)N3)CCC2 | 4 |  |
| 1600 | COc1cc(-c2ccc3c(c2NC(=O)NS(=O)(=O)c2ccnc(C(C)C)c2)CCC3)ccn1 | 23 |  |
|  | CC(C)c1cccc2c1CC(=O)NS(=O)(=O)c1ccn(n1)C(C)(C)COc1cc-2ccn1 | 1700 |  |
| 351 | CC(C)c1cc(F)cc2c1CC(=O)NS(=O)(=O)c1cnn(c1)C(C)(C)COc1cc-2ccn1 | 76 | clearance [7]: 3.5 mL/min/kg; efflux ratio at 2 h, 5 µM [8]: 18; efflux ratio [9]: 2.9; Papp at 2 h, 5 µM [10]: 10.9 ×10⁻⁶ cm/s; Papp A→B [11]: 0.39 ×10⁻⁶ cm/s; hepatocyte CLint at 100 µM [12]: < 8 µL/min/1e6 cells; Papp at 2 h, 5 µM [13]: 10.4 ×10⁻⁶ cm/s; solubility kinetic [14]: 16.5 µg/mL (≈ 34.9 µM); efflux ratio at 2 h, 5 µM [15]: 6; AUC(0-inf) [16]: 4900 ng·h/mL; Vd [17]: 0.4 L/kg; fraction unbound at 4 h, 5 µM [18]: 0.047; fraction unbound at 4 h, 5 µM [19]: 0.086; microsomal CLint at 1 µM [20]: < 15.4 µL/min/mg; half-life [21]: 1.5 h; logD [5]: 1.5; hepatocyte CLint at 100 µM [22]: < 8 µL/min/1e6 cells; fraction unbound at 4 h, 5 µM [23]: 0.036; microsomal CLint at 1 µM [24]: 35 µL/min/mg; hepatocyte CLint at 100 µM [25]: 21 µL/min/1e6 cells |

| IC50 [2] [nM] | Compound | IC50 [1] [nM] | also measured |
| --- | --- | --- | --- |
| 1000 | CC(C)n1ccc(S(=O)(=O)NC(=O)Nc2c(-c3ccnc(OC4CCOCC4)c3)ccc3c2CCC3)n1 | 62 | Ratio IC50 [4]: 16; logD [5]: 0.35 |
|  | CC(C)c1cccc2c1CC(=O)NS(=O)(=O)c1cccc(c1)C(C)(C)COc1cc-2ccn1 | 1460 |  |
|  | CC(C)c1cccc2c1CC(=O)NS(=O)(=O)c1cn(cn1)C(C)(C)COc1cc-2ccn1 | 721 |  |
|  | COc1cc(-c2ccc3c(c2NC(=O)NS(C)(=O)=O)CCC3)ccn1 | 1010 |  |
| 326 | CC(C)c1cc(F)cc2c1CC(=O)NS(=O)(=O)c1cnn(c1)C1(COC1)COc1cc-2ccn1 | 84 |  |
| 1100 | O=C1Nc2c(ccc3c2CCC3)-c2ccnc(c2)OCCCCCn2ccc(n2)S(=O)(=O)N1 | 289 |  |
|  | COc1cc(-c2cc(F)cc(C(C)C)c2CC(=O)NS(=O)(=O)c2cnn(C3CC3)c2)ccn1 | 533 | clearance [7]: 11 mL/min/kg; efflux ratio at 2 h, 5 µM [8]: 21; efflux ratio [9]: 3.6; Papp at 2 h, 5 µM [10]: 5.3 ×10⁻⁶ cm/s; Papp A→B [11]: 0.17 ×10⁻⁶ cm/s; hepatocyte CLint at 100 µM [12]: < 8 µL/min/1e6 cells; Papp at 2 h, 5 µM [13]: 8.8 ×10⁻⁶ cm/s; efflux ratio at 2 h, 5 µM [15]: 38; AUC(0-inf) [16]: 1510 ng·h/mL; Vd [17]: 13.3 L/kg; fraction unbound at 4 h, 5 µM [18]: 0.01; fraction unbound at 4 h, 5 µM [19]: 0.017; microsomal CLint at 1 µM [20]: < 15.4 µL/min/mg; half-life [21]: 16.4 h; logD [5]: 0.9; hepatocyte CLint at 100 µM [22]: < 8 µL/min/1e6 cells; fraction unbound at 4 h, 5 µM [23]: 0.019 |
| 814 | COc1cc(-c2ccc3c(c2NC(=O)NS(=O)(=O)c2cnn(C(C)C)n2)CCC3)ccn1 | 58 |  |
| 784 | O=C1Nc2c(ccc3c2CCC3)-c2ccnc(c2)OCCCCn2ccc(n2)S(=O)(=O)N1 | 176 |  |
| 270 | CC1(C)COc2cc(ccn2)-c2ccc3c(c2NC(=O)NS(=O)(=O)c2ccn1n2)CCC3 | 86 |  |
|  | CC1(C)COc2cc(ccn2)-c2ccc3c(c2CC(=O)NS(=O)(=O)c2ccn1n2)CCC3 | 16000 |  |
| 412 | COc1cc(-c2ccc3c(c2NC(=O)NS(=O)(=O)c2ccn(C(C)C)n2)CCC3)ccn1 | 51 | logD [5]: 0.09; microsomal CLint at 1 µM [6]: 12 µL/min/mg |
| 621 | COc1cc(-c2ccc3c(c2NC(=O)NS(=O)(=O)c2cn(C(C)C)cn2)CCC3)ccn1 | 61 |  |
| 440 | CC(C)n1ccc(S(=O)(=O)NC(=O)Nc2c(-c3ccnc(OC4CCN(C)CC4)c3)ccc3c2CCC3)n1 | 46 | logD [5]: -0.02 |
|  | CC(C)n1ccc(S(=O)(=O)NC(=O)Nc2c(-c3ccnc(OC4CCN(C)C4)c3)ccc3c2CCC3)n1 (centres undefined) | 800 | logD [5]: -0.5 |
| 486 | CC(C)c1cc(F)cc2c1CC(=O)NS(=O)(=O)c1cnn(c1)C(C)(CO)COc1cc-2ccn1 (centres undefined) | 83 |  |
| 241 | CCC1(C)COc2cc(ccn2)-c2cccc(C(C)C)c2CC(=O)NS(=O)(=O)c2cnn1c2 (centres undefined) | 275 |  |
|  | CC(C)c1cccc2c1CC(=O)NS(=O)(=O)c1nn(cc1F)C(C)(C)COc1cc-2ccn1 | 480 |  |
| 987 | O=C1Nc2c(ccc3c2CCC3)-c2ccnc(c2)OCCCn2ccc(n2)S(=O)(=O)N1 | 571 |  |

Reference: ChEMBL document CHEMBL6083285 (J Med Chem, 2024)
